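Tested at 5 concentrations; 48 h exposure; 96-well plates; endpoints linearly interpolated, else capped at highest concentration. GI50 marks 50% less growth. TGI denotes the concentration required for complete inhibition of growth.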
Tests used:
Test in all cases: NCI anticancer screen, dose series, 48 h
DU-145 prostate = system: DU-145 prostate
SK-OV-3 ovarian = system: SK-OV-3 ovarian
NCI-H522 lung = system: NCI-H522 lung
HCC-2998 colon = system: HCC-2998 colon
IGROV1 ovarian = system: IGROV1 ovarian
NCI-H460 lung = system: NCI-H460 lung
NCI-H226 lung = system: NCI-H226 lung
CCRF-CEM leukemia = system: CCRF-CEM leukemia
MALME-3M melanoma = system: MALME-3M melanoma
T-47D breast = system: T-47D breast

| SMILES | GI50 (DU-145 prostate) [µM] | TGI (DU-145 prostate) [µM] | GI50 (SK-OV-3 ovarian) [µM] | TGI (SK-OV-3 ovarian) [µM] | GI50 (NCI-H522 lung) [µM] | TGI (NCI-H522 lung) [µM] | GI50 (HCC-2998 colon) [µM] | TGI (HCC-2998 colon) [µM] | GI50 (IGROV1 ovarian) [µM] | TGI (IGROV1 ovarian) [µM] | GI50 (NCI-H460 lung) [µM] | TGI (NCI-H460 lung) [µM] | GI50 (NCI-H226 lung) [µM] | TGI (NCI-H226 lung) [µM] | GI50 (CCRF-CEM leukemia) [µM] | TGI (CCRF-CEM leukemia) [µM] | GI50 (MALME-3M melanoma) [µM] | TGI (MALME-3M melanoma) [µM] | GI50 (T-47D breast) [µM] | TGI (T-47D breast) [µM] |
| --- | --- | --- | --- | --- | --- | --- | --- | --- | --- | --- | --- | --- | --- | --- | --- | --- | --- | --- | --- | --- |
| CCC1(O)C(=O)OCc2c1cc1n(c2=O)Cc2cc3c(NC(=O)CN)cccc3nc2-1 (centres undefined) | 0.348 | > 20.2 | 0.377 | 31.3 | 0.387 | 9.9 | 5.07 | 25.6 | 3.9 | 73.4 | 0.122 | 3.88 | 0.385 | 4.29 | 0.0208 | 1.43 | 6.94 | 41.1 | 0.329 |  |
| COC(=O)c1cc2c(cc1Cl)SC1=NN(C)C(N(C)C)N1S2(=O)=O (centres undefined) | > 100 | > 100 | > 100 | > 100 | > 100 | > 100 | > 100 | > 100 | > 100 | > 100 | > 100 | > 100 | > 100 | > 100 | > 100 | > 100 | > 100 | > 100 | > 100 | > 100 |
| COC(=O)CCCCC(=O)c1c(C)[nH]c(/C=C2\N=C(c3ccc[nH]3)C=C2OC)c1C | 0.482 | 1.81 | 2.25 | 4.4 | 0.673 | 2.19 | 1.96 | 4.19 | 1.22 | 2.57 | 3.03 | 10.1 | 1.17 | 2.87 | 0.159 | 2.32 | 0.746 | 2.16 | 0.723 | 2.36 |
| OCCNC1c2cc(Cl)ccc2-c2c(Cl)cc(Cl)cc21 (centres undefined) |  | > 100 |  | > 100 |  | > 100 |  | > 100 |  | 47 |  | 63.4 |  | > 100 |  | 47.4 |  | > 100 |  | > 100 |
| COC(=O)c1cncc(/C=C/c2c(C)cc(O)cc2C)c1 | 13.6 | > 25 | 8.01 | 24.8 | 5.67 | 17.1 | 13.3 | > 25 | > 19.8 | > 25 | 8.95 | > 25 | > 12.7 | > 25 | 6.77 | > 25 | 11.5 | > 25 | 11 | > 22.2 |
| Oc1ccc(C(c2ccc(O)cc2)c2ccc(Br)cn2)cc1 | 2.8 | > 69.3 | 12.5 | 65.4 | 1.43 | 46.6 | 0.322 | 2.98 | 0.476 | 42.7 | 20.7 | 49.1 | 0.243 | 0.651 | 14.7 | > 100 | 17.7 | 59.8 | 0.177 | 0.531 |

— PubChem BioAssay (NCI)
